One assay concerns the target T1, Adenosine receptor A3 (Homo sapiens, UniProt P0DMS8).
T1 sequence (P0DMS8 whole entry): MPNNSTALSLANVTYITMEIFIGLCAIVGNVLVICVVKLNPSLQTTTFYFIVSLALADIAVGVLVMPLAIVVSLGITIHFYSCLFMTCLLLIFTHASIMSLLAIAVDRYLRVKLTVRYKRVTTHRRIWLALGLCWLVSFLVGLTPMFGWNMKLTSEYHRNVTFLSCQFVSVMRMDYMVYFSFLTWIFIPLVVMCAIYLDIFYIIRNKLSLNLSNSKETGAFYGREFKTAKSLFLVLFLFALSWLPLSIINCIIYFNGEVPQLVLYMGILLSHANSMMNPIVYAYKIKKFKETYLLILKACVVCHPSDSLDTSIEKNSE

The target of assay [1] is T2, Muscarinic acetylcholine receptor M2 (Homo sapiens, UniProt P08172).
T2 sequence (P08172 whole entry): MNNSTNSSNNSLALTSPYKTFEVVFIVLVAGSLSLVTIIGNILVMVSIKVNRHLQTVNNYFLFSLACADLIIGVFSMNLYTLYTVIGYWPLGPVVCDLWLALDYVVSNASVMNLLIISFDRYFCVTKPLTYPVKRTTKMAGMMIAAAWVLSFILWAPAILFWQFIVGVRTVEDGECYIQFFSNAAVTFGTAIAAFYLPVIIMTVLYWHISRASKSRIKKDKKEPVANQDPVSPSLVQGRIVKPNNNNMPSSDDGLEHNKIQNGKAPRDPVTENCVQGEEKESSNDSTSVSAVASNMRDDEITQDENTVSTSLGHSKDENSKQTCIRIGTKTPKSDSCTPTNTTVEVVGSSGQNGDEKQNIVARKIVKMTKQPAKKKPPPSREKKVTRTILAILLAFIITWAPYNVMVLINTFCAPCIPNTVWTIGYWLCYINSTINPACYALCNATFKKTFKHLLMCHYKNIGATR
In kind it is functional, cell-based.

The target in assay [2] is T3, 5-hydroxytryptamine receptor 3A (Homo sapiens, UniProt P46098).
T3 sequence (P46098 whole entry): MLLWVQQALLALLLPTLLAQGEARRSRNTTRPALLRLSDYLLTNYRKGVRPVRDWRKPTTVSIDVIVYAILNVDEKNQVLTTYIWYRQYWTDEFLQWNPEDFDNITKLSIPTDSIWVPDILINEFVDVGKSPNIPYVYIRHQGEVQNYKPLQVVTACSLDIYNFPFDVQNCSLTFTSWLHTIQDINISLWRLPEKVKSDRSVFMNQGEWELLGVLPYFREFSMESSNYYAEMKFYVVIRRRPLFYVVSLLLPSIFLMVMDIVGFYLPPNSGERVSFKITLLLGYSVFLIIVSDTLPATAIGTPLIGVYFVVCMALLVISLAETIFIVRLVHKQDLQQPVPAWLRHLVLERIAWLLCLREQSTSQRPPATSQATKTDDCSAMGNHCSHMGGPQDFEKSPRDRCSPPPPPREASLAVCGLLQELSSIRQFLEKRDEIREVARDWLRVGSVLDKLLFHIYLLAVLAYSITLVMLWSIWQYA
In kind it is functional.

Assay [3] deals with T4, 5-hydroxytryptamine receptor 2C (Homo sapiens, UniProt P28335).
T4 sequence (P28335 whole entry): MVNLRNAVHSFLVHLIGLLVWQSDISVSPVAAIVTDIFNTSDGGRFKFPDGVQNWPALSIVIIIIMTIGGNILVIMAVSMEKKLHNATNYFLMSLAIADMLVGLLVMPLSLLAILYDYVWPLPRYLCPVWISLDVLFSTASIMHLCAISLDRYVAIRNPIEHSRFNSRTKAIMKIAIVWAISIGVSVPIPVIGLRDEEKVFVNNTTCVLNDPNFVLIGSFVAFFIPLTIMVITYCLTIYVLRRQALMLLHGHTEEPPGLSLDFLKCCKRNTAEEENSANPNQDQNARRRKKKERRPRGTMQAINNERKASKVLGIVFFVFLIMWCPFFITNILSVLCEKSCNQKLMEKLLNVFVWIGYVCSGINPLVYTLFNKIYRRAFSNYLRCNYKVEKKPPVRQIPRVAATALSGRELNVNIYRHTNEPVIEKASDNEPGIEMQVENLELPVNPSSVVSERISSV

Assay [4] has as its target T5, Alpha-2A adrenergic receptor (Homo sapiens, UniProt P08913).
T5 sequence (P08913 whole entry): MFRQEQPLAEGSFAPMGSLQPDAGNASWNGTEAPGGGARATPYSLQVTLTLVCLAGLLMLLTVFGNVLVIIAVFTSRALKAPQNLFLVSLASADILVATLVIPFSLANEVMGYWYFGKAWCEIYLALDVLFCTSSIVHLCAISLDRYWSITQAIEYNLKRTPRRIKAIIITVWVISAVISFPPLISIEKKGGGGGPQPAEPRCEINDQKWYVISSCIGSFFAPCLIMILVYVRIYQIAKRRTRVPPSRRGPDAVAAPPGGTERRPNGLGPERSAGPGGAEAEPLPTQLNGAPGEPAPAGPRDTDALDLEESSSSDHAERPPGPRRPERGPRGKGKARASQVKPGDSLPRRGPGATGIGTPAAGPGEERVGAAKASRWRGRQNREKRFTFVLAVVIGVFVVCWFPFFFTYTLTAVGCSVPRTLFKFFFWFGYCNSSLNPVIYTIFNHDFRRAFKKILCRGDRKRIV
It counts as functional, cell-based.

For the next assay, the target named is Vasopressin V2 receptor (Homo sapiens, UniProt P30518).
Chain of Vasopressin V2 receptor (P30518 whole entry): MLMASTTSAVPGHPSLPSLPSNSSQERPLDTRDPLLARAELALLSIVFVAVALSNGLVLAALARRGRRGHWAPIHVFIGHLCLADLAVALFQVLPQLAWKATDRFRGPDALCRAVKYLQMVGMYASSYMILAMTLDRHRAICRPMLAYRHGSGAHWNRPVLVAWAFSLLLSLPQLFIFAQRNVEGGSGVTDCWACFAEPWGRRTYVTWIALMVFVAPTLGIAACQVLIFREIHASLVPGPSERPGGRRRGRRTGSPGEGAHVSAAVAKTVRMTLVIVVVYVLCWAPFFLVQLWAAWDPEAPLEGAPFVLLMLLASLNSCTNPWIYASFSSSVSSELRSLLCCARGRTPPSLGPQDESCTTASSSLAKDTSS
For a further assay, the target named is T6, B2 bradykinin receptor (Homo sapiens, UniProt P30411).
T6 sequence (P30411 whole entry): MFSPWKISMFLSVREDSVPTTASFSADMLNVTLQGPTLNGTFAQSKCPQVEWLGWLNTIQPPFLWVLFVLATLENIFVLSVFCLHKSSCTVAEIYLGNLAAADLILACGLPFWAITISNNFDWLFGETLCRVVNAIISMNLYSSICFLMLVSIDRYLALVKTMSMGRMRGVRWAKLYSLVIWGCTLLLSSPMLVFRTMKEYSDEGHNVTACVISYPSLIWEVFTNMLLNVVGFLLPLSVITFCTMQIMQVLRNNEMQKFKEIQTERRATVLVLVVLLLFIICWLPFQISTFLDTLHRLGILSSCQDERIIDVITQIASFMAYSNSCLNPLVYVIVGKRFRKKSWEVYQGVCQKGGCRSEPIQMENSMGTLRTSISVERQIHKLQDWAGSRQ

These results are taken from ChEMBL document CHEMBL5291721, “A preclinical secondary pharmacology resource illuminates target-adverse drug reaction associations of marketed drugs” (Nat Commun, 2023).

The structures appear in SMILES notation.
Further: assay procedure not described here.

Molecule `CCCCc1oc2ccc(NS(C)(=O)=O)cc2c1C(=O)c1ccc(OCCCN(CCCC)CCCC)cc1` [DRONEDARONE] came in with an AC50 on Adenosine receptor A3 of 1.54 µM.
The same measure, in the same setting: the same measure for `COc1ccc2[nH]c([S+]([O-])Cc3ncc(C)c(OC)c3C)nc2c1` (stereo not drawn) [OMEPRAZOLE]: 2.88 µM.
Same read-out and setting: the same measure for `CC[C@]12CCCN3CCc4c(n(c5ccccc45)[C@@](O)(C(=O)OC)C1)[C@@H]32` [VINCAMINE]: more than 30 µM.
On to `CC(C)[C@@H]1CC[C@@H](C)C[C@H]1O` [LEVOMENTHOL], for which the concentration at half-maximal activity (AC50) on Adenosine receptor A3 was more than 30 µM.
`CC(=O)NO` [ACETOHYDROXAMIC ACID]: the AC50 at Adenosine receptor A3 is more than 30 µM.
`C[C@H]1CN(C[C@H](Cc2ccccc2)C(=O)NCC(=O)O)CC[C@@]1(C)c1cccc(O)c1` [ALVIMOPAN]: the AC50 on Adenosine receptor A3 was more than 30 µM.
The same measure, in the same setting: the same measure for `C[N+]1(C)CCCC(OC(=O)C(O)(c2ccccc2)c2ccccc2)C1` (stereo not drawn) [MEPENZOLATE]: more than 30 µM; for `COc1c2occc2c(OC)c2c(=O)cc(C)oc12` [KHELLIN]: more than 30 µM.
On the same count and under the same terms, the same measure for `N=C(N)N/N=C/c1c(Cl)cccc1Cl` [GUANABENZ]: more than 30 µM.
`Cc1ccsc1C(=CCCN1CCC[C@@H](C(=O)O)C1)c1sccc1C` [TIAGABINE] displayed an AC50 on Adenosine receptor A3 of more than 30 µM.
On the same count and under the same terms, the same measure for `O=C(O)P(=O)(O)O` [FOSCARNET]: more than 30 µM; for `O=C(NNCS(=O)(=O)O)c1ccncc1` [METHANIAZIDE]: more than 30 µM; for `O=C(O)c1ccccc1` [BENZOIC ACID]: more than 30 µM.
On the same count and under the same terms, the same measure for `CC(C)C(=O)Oc1ccc(CO)cc1[C@H](CCN(C(C)C)C(C)C)c1ccccc1` [FESOTERODINE]: more than 30 µM; for `CC(=O)NCCCCCC(=O)O` [ACEXAMIC ACID]: more than 30 µM.
Still for that read-out and setting: the same measure for `CCCCC1C(=O)N(c2ccccc2)N(c2ccc(O)cc2)C1=O` (stereo not drawn) [OXYPHENBUTAZONE ANHYDROUS]: more than 30 µM.
Molecule `C[N+](C)(C)CCOC(=O)CCC(=O)OCC[N+](C)(C)C` [SUXAMETHONIUM] displayed an AC50 at Adenosine receptor A3 of more than 30 µM.
On Adenosine receptor A3, `C[C@]12C=CC(=O)C=C1CC[C@H]1[C@@H]3C[C@@H](O)[C@](O)(C(=O)CO)[C@@]3(C)C[C@H](O)[C@@]12F` [TRIAMCINOLONE] displayed an AC50 of more than 30 µM.
Molecule `C[Se]CC[C@H](N)C(=O)O` [SELENOMETHIONINE] gave an AC50 on Adenosine receptor A3 of more than 30 µM.
For `CC1(C)O[C@@H]2C[C@H]3[C@@H]4C[C@H](F)C5=CC(=O)C=C[C@]5(C)[C@@]4(F)[C@@H](O)C[C@]3(C)[C@]2(C(=O)CO)O1` [FLUOCINOLONE ACETONIDE], on Adenosine receptor A3, the AC50 was more than 30 µM.
Same read-out and setting: the same measure for `CCC1=C[C@@H]2CN(C1)Cc1c([nH]c3ccccc13)[C@@](C(=O)OC)(c1cc3c(cc1OC)N(C)[C@H]1[C@@](O)(C(=O)OC)[C@H](OC(C)=O)[C@]4(CC)C=CCN5CC[C@]31[C@@H]54)C2` [VINORELBINE]: more than 30 µM; for `Cc1ccc(C(=O)c2ccc(CC(=O)O)n2C)cc1` [TOLMETIN]: more than 30 µM; for `Cc1ccccc1C(=O)Nc1ccc(C(=O)N2CCCC(O)c3cc(Cl)ccc32)c(C)c1` (stereo not drawn) [TOLVAPTAN]: 11 µM.
`C=CC(=O)Nc1cccc(Oc2nc(Nc3ccc(N4CCN(C)CC4)cc3)nc3ccsc23)c1` [OLMUTINIB] came in with an AC50 on Adenosine receptor A3 of 0.003 µM.
The molecule `CCCCC(CC)CN1CN(CC(CC)CCCC)CC(C)(N)C1` (stereo not drawn) [HEXETIDINE] came in with an AC50 on Adenosine receptor A3 of 10.8 µM.
Consider `CCOc1nc2cccc(C(=O)O)c2n1Cc1ccc(-c2ccccc2-c2nnn[nH]2)cc1`, for which the AC50 in assay [1] was more than 30 µM; in assay [2], more than 30 µM; in assay [3], 14 µM; in assay [4], more than 30 µM; at Vasopressin V2 receptor, more than 30 µM; at B2 bradykinin receptor, more than 30 µM.
For `CCCCCCCN(CC)CCCC(O)c1ccc(NS(C)(=O)=O)cc1` (stereo not drawn) [IBUTILIDE], the AC50 (in assay [1]; in assay [2]; in assay [3]; in assay [4]; at Vasopressin V2 receptor; on B2 bradykinin receptor) was more than 30 µM each time.
As to `CNC(=C[N+](=O)[O-])NCCSCc1csc(CN(C)C)n1` [NIZATIDINE], the half-maximal activity concentration (AC50) in assay [1] is more than 10 µM; in assay [2], more than 30 µM; in assay [3] it was more than 30 µM; in assay [4], more than 10 µM; at Vasopressin V2 receptor, more than 10 µM; on B2 bradykinin receptor it was more than 10 µM.
In the case of `CC[C@@H](CO)NC(=O)[C@@H]1C=C2c3cccc4c3c(cn4C)C[C@H]2N(C)C1` [METHYSERGIDE], the AC50 in assay [1] was more than 30 µM; in assay [2] it was more than 30 µM; in assay [3], 0.0082 µM; in assay [4], 11 µM; at Vasopressin V2 receptor it was more than 30 µM; on B2 bradykinin receptor it was more than 30 µM.
For `CC(C)(O/N=C(\C(=O)N[C@@H]1C(=O)N2C(C(=O)[O-])=C(C[n+]3ccccc3)CS[C@H]12)c1csc(N)n1)C(=O)O` [CEFTAZIDIME], the AC50 in assay [1] is more than 300 µM; in assay [2] it was more than 300 µM; in assay [3], more than 300 µM; in assay [4] it was more than 300 µM; at Vasopressin V2 receptor, more than 30 µM; at B2 bradykinin receptor, more than 30 µM.
`CCC(=O)O[C@]1(C(=O)CCl)[C@@H](C)C[C@H]2[C@@H]3CCC4=CC(=O)C=C[C@]4(C)[C@@]3(F)[C@@H](O)C[C@@]21C` [CLOBETASOL PROPIONATE]: the AC50 (in assay [1]; in assay [2]; in assay [3]; in assay [4]; at Vasopressin V2 receptor; at B2 bradykinin receptor) was more than 30 µM throughout.
On to `CCCc1cc(=O)[nH]c(=S)[nH]1` [PROPYLTHIOURACIL], for which the AC50 in assay [1] is more than 10 µM; in assay [2], more than 30 µM; in assay [3] it was more than 30 µM; in assay [4] it was more than 10 µM; at Vasopressin V2 receptor, more than 10 µM; on B2 bradykinin receptor, more than 10 µM.
As for `Cn1cc(C(=O)[C@@H]2CCc3nc[nH]c3C2)c2ccccc21` [RAMOSETRON], the AC50 in assay [1] is more than 30 µM; in assay [2], 0.0004 µM; in assay [3], more than 30 µM; in assay [4], 4.3 µM; on Vasopressin V2 receptor, more than 30 µM; at B2 bradykinin receptor it was more than 30 µM.
